Source: ChEMBL document CHEMBL1201862, “PubChem BioAssay data set” (2004)
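Each compound was tested at five concentrations against cells in 96-well plates for 48 hours. Here, GI50 denotes the concentration required for 50% inhibition of growth.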 The source made the active and inactive calls. Cut-off read from the data, not from the text of the source: active = GI50 up to about 1.1 µM and inactive = higher.

Legend:
Assay in all cases: NCI tumour cell line growth inhibition, 48 h
A498 = test system: A498
A549 = test system: A549
ACHN = test system: ACHN
CAKI-1 = test system: CAKI-1
CCRF-CEM = test system: CCRF-CEM
EKVX = test system: EKVX
HCC 2998 = test system: HCC 2998
HCT-116 = test system: HCT-116
HL-60 = test system: HL-60
HOP-62 = test system: HOP-62
K562 = test system: K562
MDA-MB-231 = test system: MDA-MB-231
MDA-MB-435 = test system: MDA-MB-435
Malme-3M = test system: Malme-3M
NCI-H23 = test system: NCI-H23
SF-295 = test system: SF-295
SK-MEL-28 = test system: SK-MEL-28
SK-MEL-5 = test system: SK-MEL-5
SW-620 = test system: SW-620
UACC-62 = test system: UACC-62

| SMILES | GI50 (A498) | GI50 (A549) | GI50 (ACHN) | GI50 (CAKI-1) | GI50 (CCRF-CEM) | GI50 (EKVX) | GI50 (HCC 2998) | GI50 (HCT-116) | GI50 (HL-60) | GI50 (HOP-62) | GI50 (K562) | GI50 (MDA-MB-231) | GI50 (MDA-MB-435) | GI50 (Malme-3M) | GI50 (NCI-H23) | GI50 (SF-295) | GI50 (SK-MEL-28) | GI50 (SK-MEL-5) | GI50 (SW-620) | GI50 (UACC-62) |
| --- | --- | --- | --- | --- | --- | --- | --- | --- | --- | --- | --- | --- | --- | --- | --- | --- | --- | --- | --- | --- |
| COc1ccc2c(c1)CCCN1Cc3ccccc3CC21 (stereo unspecified) | 27 µM (inactive) | > 100 µM (inactive) | > 100 µM (inactive) | > 100 µM (inactive) | 77.1 µM (inactive) | 98.4 µM (inactive) | 19.1 µM (inactive) | 52.7 µM (inactive) | 28.8 µM (inactive) | 40.8 µM (inactive) | 31.3 µM (inactive) | 91.4 µM (inactive) | 54.1 µM (inactive) | 41.9 µM (inactive) | > 100 µM (inactive) | 65.9 µM (inactive) | 62.1 µM (inactive) | 22.5 µM (inactive) | 65.6 µM (inactive) | 91.6 µM (inactive) |
| N#CCCCC[N+]12CN3CN(CN(C3)C1)C2 | > 100 µM (inactive) | > 100 µM (inactive) | > 100 µM (inactive) | > 100 µM (inactive) | 64 µM (inactive) | > 100 µM (inactive) | > 100 µM (inactive) | > 100 µM (inactive) | > 100 µM (inactive) | > 100 µM (inactive) | > 100 µM (inactive) | > 100 µM (inactive) | > 100 µM (inactive) | > 100 µM (inactive) | > 100 µM (inactive) | > 100 µM (inactive) | > 100 µM (inactive) | > 100 µM (inactive) | 64.6 µM (inactive) | > 100 µM (inactive) |
| Nc1ncc(/C=N/O)c(NCC2(CO)CC(CCc3ccccc3)C2)n1 (stereo unspecified) | 11 µM (inactive) | 2.48 µM (inactive) | – | 18.4 µM (inactive) | 14.7 µM (inactive) | – | 15.5 µM (inactive) | 0.0569 µM (active) | 2.2 µM (inactive) | 11.3 µM (inactive) | 0.144 µM (active) | 9.71 µM (inactive) | 11.1 µM (inactive) | 12.1 µM (inactive) | – | 1.02 µM (active) | – | 0.0577 µM (active) | – | 12.3 µM (inactive) |
| CC1=NC(=O)C(C)(c2ccccc2)N1CCc1ccccc1 (stereo unspecified) | 21.7 µM (inactive) | 27.3 µM (inactive) | > 100 µM (inactive) | > 100 µM (inactive) | 36.2 µM (inactive) | > 100 µM (inactive) | 27.4 µM (inactive) | 28 µM (inactive) | 51.5 µM (inactive) | > 100 µM (inactive) | 34.8 µM (inactive) | 67.6 µM (inactive) | 75 µM (inactive) | > 100 µM (inactive) | > 100 µM (inactive) | 38.5 µM (inactive) | – | 27 µM (inactive) | 61.8 µM (inactive) | 44 µM (inactive) |
| COCC#C[C@@]1(O)CCCCC1CC(OC)OC (stereo partly specified) | 38.4 µM (inactive) | > 100 µM (inactive) | > 100 µM (inactive) | > 100 µM (inactive) | 38.5 µM (inactive) | > 100 µM (inactive) | > 100 µM (inactive) | 81.8 µM (inactive) | 55.1 µM (inactive) | > 100 µM (inactive) | 49.7 µM (inactive) | > 100 µM (inactive) | 62.7 µM (inactive) | 64.9 µM (inactive) | > 100 µM (inactive) | > 100 µM (inactive) | > 100 µM (inactive) | > 100 µM (inactive) | – | 34.9 µM (inactive) |
| Cc1ccc([N+](=O)[O-])c2c(NCCC[N+](C)(C)[O-])ccnc12 | 32.2 µM (inactive) | 33.2 µM (inactive) | 61.5 µM (inactive) | 53.6 µM (inactive) | 44.6 µM (inactive) | > 100 µM (inactive) | 23.4 µM (inactive) | 38.9 µM (inactive) | 31.3 µM (inactive) | 29.3 µM (inactive) | 27.5 µM (inactive) | > 100 µM (inactive) | > 100 µM (inactive) | 44 µM (inactive) | 33.4 µM (inactive) | 28.8 µM (inactive) | > 100 µM (inactive) | 12.2 µM (inactive) | 34.1 µM (inactive) | > 10 µM (inactive) |
| CCCCCCCCCCCC[C@@H](O)[C@H]1CC[C@H]([C@H](O)CC[C@H](O)[C@@H]2CC[C@@H](CCCCCCCC3=C[C@H](C)OC3=O)O2)O1 | > 50 µM (inactive) | > 50 µM (inactive) | > 50 µM (inactive) | > 50 µM (inactive) | > 38.4 µM (inactive) | > 50 µM (inactive) | > 50 µM (inactive) | 5.58 µM (inactive) | 1.74 µM (inactive) | > 50 µM (inactive) | – | > 50 µM (inactive) | > 50 µM (inactive) | > 50 µM (inactive) | > 18.1 µM (inactive) | > 12.6 µM (inactive) | > 50 µM (inactive) | – | > 50 µM (inactive) | 1.53 µM (inactive) |
